Laboratory results from patent publication US10525269B2, “Methods for improving heart function” (THE JOHNS HOPKINS UNIVERSITY, priority 2010, dated 2020).
“Also recorded” adds a separate entry of the source.

How the values were obtained:
[1] = Pearce (2009); cited from earlier work
[2] = test system: isolated myocytes; assay: Myocyte sarcomere shortening and whole-cell calcium transients; type: cell-based, dog; design: effect of PTX on zinterol-stimulated shortening and Ca2+ transients: dose or concentration left out as unconfirmed
Description: Myocyte sarcomere shortening and whole-cell calcium transients were assessed with an inverted microscope (Ellipse TE2001, Nikon) equipped with an image-fluorescence system (MyoCam, IonOptix).
Adenovirus-mediated gene transfer of GFP, RGS2, or RGS3 was implemented by adding a minimal volume of the FBS-free MEM containing the gene-carrying adenovirus (100 multiplicities of infection). The full volume of FBS-free MEM was supplied after culture for another 1 to 2 hours. RGS expression and myocyte functional changes were assessed at 24 hours after transfection.

[3] = test system: cAMP; assay: Membrane-localized cAMP FRET probe (ICUE3) in isolated myocytes; type: cell-based, dog; conditions: in presence of IBMX
Source text: Adult myocytes were infected with an adenovirus expressing either the modified EPAC-based cAMP FRET sensor (ICUE3) (DiPilato et al. (1999) J Biol Chem. 274:22048-22052) or SR-localized PKA activity sensor SR-AKAR3 (Liu et al. (2011) Biochem Biophys Res Commun. 404:581-586). Just before study, cells were washed two times with Hanks' balanced salt solution and imaged at room temperature in the dark. Dual-emission ratio imaging used a 420DF20 excitation filter, a 450DRLP dichroic mirror, and two emission filters (475DF40 for cyan fluorescent protein and 535DF25 for yellow fluorescent protein) and was performed on a Zeiss Axiovert 200 M microscope with a MicroMAX BFT512 cooled charge-coupled device camera (Roper Scientific) controlled by MetaFluor 6.2 software (Universal Imaging). […]
To further clarify the nature of the altered β2-AR signalling, studies were performed in isolated myocytes infected with an adenovirus containing a plasma membrane-targeted adenosine 3′,5′-monophosphate (cAMP)-sensitive fluorescence resonance energy transfer (FRET) probe (ICUE3) based on the EPAC1 (exchange protein directly activated by cAMP 1) binding domain (FIG. 6A; DiPilato et al. (1999) J Biol Chem. 274:22048-22052). […]

[4] = test system: PKA; assay: SR-localized PKA activity FRET sensor (SR-AKAR3) in myocytes; type: cell-based, dog
Source text: Adult myocytes were infected with an adenovirus expressing either the modified EPAC-based cAMP FRET sensor (ICUE3) (DiPilato et al. (1999) J Biol Chem. 274:22048-22052) or SR-localized PKA activity sensor SR-AKAR3 (Liu et al. (2011) Biochem Biophys Res Commun. 404:581-586). Just before study, cells were washed two times with Hanks' balanced salt solution and imaged at room temperature in the dark. Dual-emission ratio imaging used a 420DF20 excitation filter, a 450DRLP dichroic mirror, and two emission filters (475DF40 for cyan fluorescent protein and 535DF25 for yellow fluorescent protein) and was performed on a Zeiss Axiovert 200 M microscope with a MicroMAX BFT512 cooled charge-coupled device camera (Roper Scientific) controlled by MetaFluor 6.2 software (Universal Imaging). Fluorescent images (taken every 20 to 30 s) were background-corrected by subtracting autofluorescence intensities of untransfected cells (or background with no cells) from the emission intensities of cells expressing reporters.
To further clarify the nature of the altered β2-AR signalling, studies were performed in isolated myocytes infected with an adenovirus containing a plasma membrane-targeted adenosine 3′,5′-monophosphate (cAMP)-sensitive fluorescence resonance energy transfer (FRET) probe (ICUE3) based on the EPAC1 (exchange protein directly activated by cAMP 1) binding domain (FIG. 6A; DiPilato et al. (1999) J Biol Chem. 274:22048-22052). After 24 hours, cells were stimulated with either zinterol or fenoterol, each in the presence of a broad-spectrum phosphodiesterase (PDE) inhibitor, IBMX. […] Previous studies have proposed that reduced Gαi coupling to the β2-AR can modify the targeting of cAMP, resulting in enhanced protein kinase A (PKA) activation of sarcoplasmic reticulum (SR) calcium handling proteins and thus augmentation of the Ca^2+ and associated myocyte shortening (Kuschel et al. (1999) J. Biol. Chem. 274:22048-22052).

CC(Cc1ccc(O)cc1)NCC(O)c1cc(O)cc(O)c1 (single isomer, unassigned) [fenoterol as a mixture of R,R-enantiomer and S,S-enantiomer, fenoterol]
mortality in asthma use [1]: worsened death

CC(Cc1ccc(O)cc1)NCC(O)c1cc(O)cc(O)c1 (stereo not shown) [fenoterol]
fenoterol response compared with zinterol alone ([2]; HFdys and HFsyn): augmented over zinterol alone | fenoterol-stimulated cAMP response (FRET ratio) ([3]; all groups): all responded similarly; also recorded: similarly elevated response | PKA activation at the SR ([4]; cells from all models): PKA activation was detected | PKA activation at the SR ([4]; cells from all models, listed as Fenoterol): stimulated PKA at the SR in all models

CC(C)NCC(O)c1ccc(O)c(O)c1 (stereo not shown) [isoproterenol]
isoproterenol-stimulated shortening, relaxation, and peak calcium ([2]; AVA myocytes, compared with CRT): similar | isoproterenol-stimulated sarcomere shortening and relengthening, peak Ca2+ transient and decay rate ([2]; myocytes from HFdys or HFsyn): equally depressed; also recorded: markedly and similarly depressed | isoproterenol-stimulated sarcomere shortening and relengthening, peak Ca2+ transient and decay rate ([2]; myocytes from resynchronization models (CRT, V3A3)): back to near-control levels; also recorded: returned to control levels

CC(C)(Cc1ccccc1)NCC(O)c1ccc(O)c(NS(C)(=O)=O)c1 (stereo not shown) [zinterol]
response to zinterol ([2]; AVA cells): responded robustly | shortening and Ca2+ transient response to zinterol ([2]; cells from resynchronized hearts): enhanced responses | zinterol-stimulated cAMP increase (FRET ratio) ([3]; resynchronization models vs other groups incl. control): exceeded that in the other groups; also recorded: greater response | PKA activation at the SR ([4]; CRT cells): activation was detectable; also recorded: showed PKA activation | PKA stimulation detected at the SR ([4]; myocytes from HFdys or HFsyn): negligible PKA stimulation

pertussis toxin [PTX]
effect of PTX on zinterol-stimulated functional or Ca2+ response ([2]; AVA myocytes): not further altered; also recorded: minimal augmentation | effect of PTX pretreatment on isoproterenol-stimulated sarcomere shortening (% SS) and whole-cell calcium transient ([2]; HFdys and HFsyn): greatly enhanced both behaviors | effect of PTX on zinterol-stimulated shortening and Ca2+ transients ([2]; cells from HFdys and HFsyn): greatly amplified the response; also recorded: marked augmentation | effect of PTX on zinterol-stimulated shortening and Ca2+ transients ([2]; cells from resynchronized hearts (CRT, V3A3)): little changed | effect of PTX on zinterol-stimulated shortening and Ca2+ transients ([2]; control myocytes): augmented zinterol-stimulated shortening and Ca^2+ transients slightly | effect of PTX pretreatment on isoproterenol-stimulated sarcomere shortening (% SS) and whole-cell calcium transient ([2]; resynchronized models): no impact
